Results reported in patent US20230348426A1, “OXOPYRROLIDINE FPR2 AGONISTS” (Bristol-Myers Squibb Company, priority 2020, published 2023).

Experiments:
human FPR2 = human FPR2 (Homo sapiens (Human), UniProt P25090); experiment: FPR2 cyclic adenosine monophosphate (cAMP) assay; assay type: cell-based; details: CHO cells overexpressing human FPR2; forskolin 5 µM; inhibition of cAMP production; read-out: hFPR2 cAMP2 EC50
Outline: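 Inhibition of forskolin-driven (5 µM) cAMP, with 200 µM IBMX, measured in human FPR2-expressing CHO cells, 2,000 per well, 30 min at room temperature; compounds tested 0.020 nM to 100 µM in 1% DMSO. HTRF 665/590 ratio converted to cAMP via calibration curve, then 4-parameter fit.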

human FPR1 = human FPR1 (Homo sapiens (Human), UniProt P21462); experiment: FPR1 cyclic adenosine monophosphate (cAMP) assay; assay type: cell-based; details: CHO cells overexpressing human FPR1; forskolin 10 µM; inhibition of cAMP production; read-out: hFPR1 cAMP EC50
human FPR1, sequence (P21462 whole entry): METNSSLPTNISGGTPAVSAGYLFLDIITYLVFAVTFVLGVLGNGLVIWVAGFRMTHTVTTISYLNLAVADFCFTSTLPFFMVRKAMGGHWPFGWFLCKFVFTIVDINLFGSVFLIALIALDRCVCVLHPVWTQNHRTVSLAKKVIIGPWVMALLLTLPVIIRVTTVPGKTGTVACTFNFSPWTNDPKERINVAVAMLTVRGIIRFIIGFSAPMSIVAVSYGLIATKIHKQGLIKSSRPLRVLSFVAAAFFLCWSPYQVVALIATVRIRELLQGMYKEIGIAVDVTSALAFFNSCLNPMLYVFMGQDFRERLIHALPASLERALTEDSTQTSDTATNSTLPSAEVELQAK
Outline: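 Human FPR1-expressing CHO cells were used at 4,000 per well, with compound at 0.020 nM–100 µM in 1% DMSO. Potency came from a 4-parameter logistic fit.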

human FPR2, sequence (P25090 whole entry): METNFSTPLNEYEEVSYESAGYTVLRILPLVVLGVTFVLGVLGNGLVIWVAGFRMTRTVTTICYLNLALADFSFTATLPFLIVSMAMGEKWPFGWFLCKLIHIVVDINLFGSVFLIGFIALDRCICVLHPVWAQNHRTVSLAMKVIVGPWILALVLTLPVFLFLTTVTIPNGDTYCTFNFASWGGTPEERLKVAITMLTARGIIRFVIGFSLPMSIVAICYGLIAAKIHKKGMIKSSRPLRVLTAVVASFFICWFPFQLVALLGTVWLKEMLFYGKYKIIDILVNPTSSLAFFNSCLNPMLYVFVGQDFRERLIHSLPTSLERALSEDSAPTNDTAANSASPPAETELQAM

SMILES	EC50 (human FPR2)	EC50 (human FPR1)
COc1cc(F)c([C@@H]2CN(c3nccc(NCCO)c3C(F)(F)F)C(=O)[C@H]2NC(=O)c2ccc(Cl)cc2)c(F)c1 [Example 419]	4.8 nM	110 nM
COc1cc(F)c([C@H]2[C@H](NC(=O)c3ccc(OC(F)F)cc3)C(=O)N(c3cccc(N4CC[C@@H](O)C4)n3)[C@H]2C)c(F)c1 [Example 561]	4.3 nM	170 nM
CCn1cccc(N2C[C@@H](c3c(F)cc(OC)cc3F)[C@H](NC(=O)c3ccc(C#N)cc3)C2=O)c1=O [Example 319]	10 nM	200 nM
COc1ccc([C@@H]2CN(c3c(C)ccn(CC4CC4)c3=O)C(=O)[C@H]2NC(=O)c2ccc(OC(F)F)cc2)cc1 [Example 610]	1 nM	0.3 nM
CC(O)Cn1cccc(N2C[C@@H](c3ccc(Cl)cc3)[C@H](NC(=O)c3ccc(OC(F)(F)F)cc3)C2=O)c1=O (some centres unmarked) [Example 439]	5.5 nM	7 nM
COc1cc(F)c([C@@H]2CN(c3cccc(C4=CNCCC4)n3)C(=O)[C@H]2NC(=O)c2ccc(OC(F)F)cc2)c(F)c1 [Example 500]	2.2 nM	710 nM
COc1cc(F)c([C@@H]2CN(c3nc(C4CCN(C)CC4)ccc3F)C(=O)[C@H]2NC(=O)c2ccc(OC(F)F)cc2)c(F)c1 [Example 556]	2.2 nM	2000 nM
COc1cc(F)c([C@@H]2CN(c3cccc(N4CCN(S(C)(=O)=O)CC4)n3)C(=O)[C@H]2NC(=O)c2ccc(OC(F)F)cc2)c(F)c1 [Example 567]	9.6 nM	> 5000 nM
COc1cc(F)c([C@@H]2CN(c3cccn(CC(F)F)c3=O)C(=O)[C@H]2NC(=O)c2ccc(OC(F)(F)F)cc2)c(F)c1 [Example 148]	3.8 nM	19 nM
COCC(CO)n1cccc(N2C[C@@H](c3ccc(OC)cc3F)[C@H](NC(=O)c3ccc(OC(F)(F)F)cc3)C2=O)c1=O (some centres unmarked) [Example 705]	0.6 nM	3.9 nM
COc1cc(F)c([C@@H]2CN(c3cccn(CCO)c3=O)C(=O)[C@H]2NC(=O)c2ccc(OC(F)(F)F)cc2)c(F)c1 [Example 174]	4.5 nM	67 nM
COCCn1cccc(N2C(=O)[C@@H](NC(=O)c3ccc(OC(F)F)cc3)[C@H](c3c(F)cc(OC)cc3F)[C@@H]2C)c1=O [Example 105]	2.9 nM	65 nM
COc1cc(C2CCNCC2)nc(N2C[C@@H](c3c(F)cc(OC)cc3F)[C@H](NC(=O)c3ccc(OC(F)F)cc3)C2=O)c1 [Example 534]	3.4 nM	> 5000 nM
COCCn1ccc(C)c(N2C[C@@H](c3ccc(OC)cc3F)[C@H](NC(=O)c3ccc(OC(F)(F)F)cc3)C2=O)c1=O [Example 288]	8.6 nM	0.8 nM
COc1cc(F)c([C@@H]2CN(c3nc(N4CCC(O)C4=O)ccc3F)C(=O)[C@H]2NC(=O)c2ccc(OC(F)F)cc2)c(F)c1 (some centres unmarked) [Example 199]	5.2 nM	130 nM
COc1cc(F)c([C@@H]2CN(c3nccc(N4C[C@@H](C)N(C)[C@@H](C)C4)c3C#N)C(=O)[C@H]2NC(=O)c2ccc(Cl)cc2)c(F)c1 [Example 167]	4.3 nM	> 10000 nM
COc1cc(F)c([C@@H]2CN(c3c(C)ccn(C(CO)C(F)(F)F)c3=O)C(=O)[C@H]2NC(=O)c2ccc(OC(F)F)cc2)c(F)c1 (some centres unmarked) [Example 707]	5.4 nM	130 nM
COc1cc(F)c([C@@H]2CN(c3cnn4c3OCCC4)C(=O)[C@H]2NC(=O)c2ccc(OC(F)F)cc2)c(F)c1 [Example 597]	1.5 nM	210 nM
CCn1cccc(N2C[C@@H](c3ccc(OC)cc3F)[C@H](NC(=O)c3ccc(OC(F)(F)F)cc3)C2=O)c1=O [Example 249]	6.9 nM	13 nM
CCn1c2c(cc(N3C[C@@H](c4c(F)cc(OC)cc4F)[C@H](NC(=O)c4ccc(Cl)cc4)C3=O)c1=O)CCCC2 [Example 464]	1.6 nM	4 nM
COCCn1cccc(N2C[C@@H](c3c(F)cc(OC)cc3F)[C@H](NC(=O)c3ccc(OC)cc3)C2=O)c1=O [Example 342]	32 nM	830 nM
COc1cc(F)c([C@@H]2CN(c3cc4c(n(CCO)c3=O)CCCC4)C(=O)[C@H]2NC(=O)c2ccc(OC(F)F)cc2)c(F)c1 [Example 446]	< 5 nM	3 nM
O=C(N[C@@H]1C(=O)N(c2cccn(CC(O)C(F)(F)F)c2=O)C[C@H]1c1ccc(Cl)cc1)c1ccc(OC(F)(F)F)cc1 (some centres unmarked) [Example 355]	4.5 nM	4 nM
O=C(N[C@@H]1C(=O)N(c2cccn(CC(F)F)c2=O)C[C@H]1c1ccc(Cl)cc1)c1ccc(OC(F)F)cc1 [Example 236]	6.5 nM	30 nM
COc1cc(F)c([C@@H]2CN(c3c(C)ccn(C(F)(F)CO)c3=O)C(=O)[C@H]2NC(=O)c2ccc(OC(F)(F)F)cc2)c(F)c1 [Example 659]	1 nM	1.3 nM

SMILES	EC50 (human FPR2)	EC50 (human FPR1)
COc1cc(F)c([C@@H]2CN(c3cncn(C4CCN(C)C4)c3=O)C(=O)[C@H]2NC(=O)c2ccc(Cl)cc2)c(F)c1 (some centres unmarked) [Example 721]	5.6 nM	> 5000 nM
COCCn1cc(C)c(C)c(N2C[C@@H](c3c(F)cc(OC)cc3F)C(NC(=O)c3ccc(Cl)cc3)C2=O)c1=O (some centres unmarked) [Example 640]	2.2 nM	1200 nM
COc1ccc([C@@H]2CN(c3c(C)ccn(C4CCOC4)c3=O)C(=O)[C@H]2NC(=O)c2ccc(OC(F)(F)F)cc2)cc1 (some centres unmarked) [Example 132]	3.4 nM	0.8 nM
COc1ccc([C@@H]2CN(c3ccnn(CC(F)F)c3=O)C(=O)[C@H]2NC(=O)c2ccc(OC(F)F)cc2)cc1 [Example 691]	11 nM	11 nM
COc1cc(F)c([C@@H]2CN(c3c(C)ccn(C4CCOCC4)c3=O)C(=O)[C@H]2NC(=O)c2ccc(OC(F)(F)F)cc2)c(F)c1 [Example 478]	5.9 nM	1 nM
COc1cc(F)c([C@H]2[C@H](NC(=O)c3ccc(OC(F)F)cc3)C(=O)N(c3cccc(C4CCCN(C)C4)n3)[C@H]2C)c(F)c1 (some centres unmarked) [Example 513]	2.4 nM	1500 nM
COCCn1cc(F)cc(N2C[C@@H](c3c(F)cc(OC)cc3F)[C@H](NC(=O)c3ccc(OC(F)(F)F)cc3)C2=O)c1=O [Example 322]	10 nM	97 nM
COCC(CO)n1cccc(N2C[C@@H](c3ccc(OC)cc3)[C@H](NC(=O)c3ccc(OC(F)F)cc3)C2=O)c1=O (some centres unmarked) [Example 315]	10 nM	9.6 nM
CCn1ccc(N2C[C@@H](c3c(F)cc(OC)cc3F)[C@H](NC(=O)c3ccc(OC(F)F)cc3)C2=O)n1 [Example 648]	0.7 nM	4.1 nM
O=C(N[C@@H]1C(=O)N(c2cccn(CC(O)C(F)(F)F)c2=O)C[C@H]1c1ccc(Cl)cc1)c1ccc(OC(F)(F)F)cc1 (some centres unmarked) [Example 608]	4.1 nM	4.2 nM
COCC(CO)n1ccc(C)c(N2C[C@@H](c3c(F)cc(OC)cc3F)[C@H](NC(=O)c3ccc(OC(F)F)cc3)C2=O)c1=O (some centres unmarked) [Example 112]	3 nM	2.8 nM
COc1ccc([C@@H]2CN(c3c(C)ccn(CC(F)F)c3=O)C(=O)[C@H]2NC(=O)c2ccc(Cl)cc2)cc1 [Example 366]	3 nM	3 nM
COc1cc(F)c([C@@H]2CN(c3nc(N4C[C@@H](C)N(C)[C@@H](C)C4)ccc3C#N)C(=O)[C@H]2NC(=O)c2ccc(OC(F)F)cc2)c(F)c1 [Example 332]	13 nM	5800 nM
CC(O)Cn1cccc(N2C[C@@H](c3ccc(Cl)cc3)[C@H](NC(=O)c3ccc(OC(F)F)cc3)C2=O)c1=O (some centres unmarked) [Example 409]	6.3 nM	36 nM
COc1cc(F)c([C@@H]2CN(c3c(C)ccn(C4CCC4)c3=O)C(=O)[C@H]2NC(=O)c2ccc(OC(F)(F)F)cc2)c(F)c1 [Example 458]	1.2 nM	0.8 nM
COc1cc(F)c([C@@H]2CN(c3cc(C)cc(N4C[C@@H]5C[C@H]4CN5C)n3)C(=O)[C@H]2NC(=O)c2ccc(OC(F)F)cc2)c(F)c1 [Example 570]	1.2 nM	1500 nM
COc1cc(F)c([C@H]2[C@H](NC(=O)c3ccc(OC(F)F)cc3)C(=O)N(c3cccc(C4CCCN(CCO)C4)n3)[C@H]2C)c(F)c1 (some centres unmarked) [Example 516]	1.3 nM	1700 nM
COc1cc(F)c([C@@H]2CN(c3c(C)ccn(CC(C)O)c3=O)C(=O)[C@H]2NC(=O)c2ccc(OC(F)F)cc2)c(F)c1 (some centres unmarked) [Example 176]	4.6 nM	6.5 nM
COc1cc(F)c([C@@H]2CN(c3cccn(C4CCOC4)c3=O)C(=O)[C@H]2NC(=O)c2ccc(OC(F)(F)F)cc2)c(F)c1 (some centres unmarked) [Example 298]	9 nM	8.5 nM
COc1ccc([C@@H]2CN(c3cccn(CC(F)F)c3=O)C(=O)[C@H]2NC(=O)c2ccc(OC(F)F)cc2)c(F)c1 [Example 59]	1.5 nM	6.6 nM
CNC(=O)C(C)Nc1ccnc(N2C[C@@H](c3c(F)cc(OC)cc3F)[C@H](NC(=O)c3ccc(Cl)cc3)C2=O)c1C(F)(F)F (some centres unmarked) [Example 275]	8 nM	6100 nM
COc1cc(N2C[C@@H]3C[C@H]2CN3C)nc(N2C(=O)[C@@H](NC(=O)c3ccc(Cl)cc3)[C@H](c3c(F)cc(OC)cc3F)[C@H]2C)c1 [Example 49]	1.1 nM	2000 nM
COc1cc(F)c([C@@H]2CN(c3cncn(CCC(F)(F)F)c3=O)C(=O)[C@H]2NC(=O)c2ccc(OC(F)F)cc2)c(F)c1 [Example 487]	1.9 nM	720 nM
COc1cc(F)c([C@@H]2CN(c3nc(NC4CCOC4)ccc3F)C(=O)[C@H]2NC(=O)c2ccc(OC(F)(F)F)cc2)c(F)c1 (some centres unmarked) [Example 62]	1.6 nM	110 nM
